Literature values as cited in patent US20080124400A1, “Microparticles With High Loadings Of A Bioactive Agent” (Angiotech International AG, priority 2004, published 2008).

Legend:
[1] = tested on: collagen induced arthritis; settings: animal model
[2] = tested on: normal chondrocytes and non-proliferating synoviocytes

CC(=O)O[C@H]1C(=O)[C@@]2(C)[C@H]([C@H](OC(=O)c3ccccc3)[C@]3(O)C[C@H](OC(=O)[C@H](O)[C@@H](NC(=O)c4ccccc4)c4ccccc4)C(C)=C1C3(C)C)[C@]1(OC(C)=O)CO[C@@H]1C[C@@H]2O [Paclitaxel, paclitaxel]
neutrophil activation (neutrophil): inhibits neutrophil activation | T-cell response to stimuli and T-cell function (T-cell): decreases T-cell response to stimuli, and inhibits T-cell function | proliferation and apoptosis of synoviocytes (synoviocytes): prevents the proliferation of and induces apoptosis in synoviocytes | AP-1 transcription activity (AP-1): inhibits AP-1 transcription activity | collagen induced arthritis [1]: inhibits collagen induced arthritis | toxicity to non-proliferating cells [2]: non-toxic
